“Also recorded” adds a separate entry of the source.
Legend:
[1] = tested on: Golgi apparatus in Neuro2a cells receiving G93A plasmids; test: Golgi morphology (Golgin97) in Neuro2a cells receiving G93A plasmids; format: cell-based, mouse; settings: 10 μM, 48 hours, G93A-transfected Neuro2a
Source text: Pathological alteration of the Golgi apparatus, such as its fragmentation, has been described in many neurodegenerative disorders including ALS. Neuro2a cells transfected with plasmids encoding the G93A mutant form of the SOD1 show alteration of the Golgi transport (Soo, Halloran et al. 2015). Along the same lines, Golgi fragmentation precedes neuromuscular denervation and axon retraction in ALS mice (van Dis, Kuijpers et al. 2014). We transfected Neuro2a cells with plasmids encoding the G93A mutant form of the human SOD1 gene (hereafter G93A) in presence or in absence of compound 2a (10 μM). Cells were harvested after 48 hours, labelled for Golgin-97 and scored for the distribution of trans-Golgi. […] Of note, the fragmentation of Golgi in cells receiving G93A plasmids was not depending on Golgin97 expression levels (FIG. 3A). We speculated that Golgi fragmentation may exacerbate cell death in this cell line. Therefore, we assayed cell survival of Neuro2a transfected with G93A plasmids. Accordingly, cells were transfected with G93A plasmids or with a control plasmid encoding the LacZ. […]
Golgi morphology was assessed in control or in Neuro2a cells receiving G93A plasmids with or without compound 2a (10 μM) according to published methods (Stafa 2012). […] Golgi subclasses were expressed as a percent of the total number of Golgi scored for each experimental condition.

TNFα = test: LPS-mediated TNFα release in Raw 264.7 cells (ELISA); format: cell-based, murine; settings: 10 μM for 1 hour, then LPS 100 ng/ml, 4 hours
Source text: We observed that the molecular structure featuring compound 2a is reminiscent of the patented compound CNI-1493 (N,N′-bis [3,5 -bis [1(aminoiminomethyl) hydrazono]ethyl]phenyl]decanediamide tetrahydrochloride (CAS Reg. No. 164301-51-3)), (FIG. 16A). CNI-1493 inhibits macrophage activation in the animal model of Multiple Sclerosis producing a general amelioration of clinical and pathological outcomes of these mice (Martiney, Rajan et al. 1998). […] CNI-1493 suppresses the production of pro-inflammatory cytokines, belonging to the plethora of detrimental signals that accompany neurodegenerative processes in several disorders. […] We followed experimental procedures published by Bianchi and colleagues that describe the ability of CNI-1493 to blunt the production of this cytokine (Bianchi, Bloom et al. 1996). Cells were incubated with CNI-1493 (10 μM) or with compound 2a (10 μM) for 1 hour and then we added the LPS (100 ng/ml) to media. We next collected supernatants (4 hours after the LPS stimulation) form cells for the evaluation of TNFα levels.
Raw 264.7 cells (10^5/well) were treated with compound 2a, CNI-1493 or vehicle for 1 hour then we applied LPS (100 ng/ml) and supernatants were collected after 4 hours. […] Concentrations of TNFα were calculated according to a standard curve and expressed as nanograms per […]. […]

## N=C(N)NN=Cc1cccc(C=NNC(=N)N)c1 [Compound 2a, 1,3-Bis-amino guanidine phenyl hydrazone]
[1]
  percentages of cells showing partial or complete fragmentation of the Golgi complex: significantly diminished these percentages
TNFα
  TNFα levels in supernatants: did not show any reduction of TNFα; also recorded: did not inhibit TNFα release

— patent publication US20220213030A1, “AMINOGUANIDINE HYDRAZONES AS RETROMER STABILIZERS USEFUL FOR TREATING NEUROLOGICAL DISEASES” (OSPEDALE SAN RAFFAELE SRL, priority 2019, published 2022)
